Source: patent US5229381A, “Substituted azetidinones as anti-inflammatory and antidegenerative agents” (Merck & Co., Inc., priority 1991, dated 1993)

Molecular target: T1, human polymorphonuclear leukocyte elastase (Homo sapiens, UniProt P08246)
T1 construct: Crude extract of human polymorphonuclear leukocytes (PMN) containing elastase activity; endogenous in cells; host or cells: human polymorphonuclear leukocytes (crude extract)
T1 sequence (P08246 30-247 limits assumed): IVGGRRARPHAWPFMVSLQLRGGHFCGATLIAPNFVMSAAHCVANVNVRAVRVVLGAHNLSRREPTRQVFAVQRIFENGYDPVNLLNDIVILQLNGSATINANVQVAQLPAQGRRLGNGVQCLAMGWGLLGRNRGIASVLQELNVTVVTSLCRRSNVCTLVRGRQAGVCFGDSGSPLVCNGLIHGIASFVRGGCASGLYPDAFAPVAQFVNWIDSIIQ
Experiment: Inhibition of human polymorphonuclear leukocyte (granulocyte) elastase via hydrolysis of Boc-AAPAN or Boc-AAPVN
Assay type: biochemical
Conditions: Table I; 2 min after time zero; crude PMN extract, pH 7.5

SMILES	ID50, effective dosage for 50% inhibition of the enzyme activity two minutes after time zero [µg/mL]
CCCC1C(=O)N(C(C)=O)C1OC(C)=O (stereo not drawn) [Table I: H; n-propyl; OCOCH3; COCH3, 1-acetyl-4-acetoxy-3-n-propylazetidin-2-one]	10
CC(=O)OC1CC(=O)N1C(C)=O (stereo not drawn) [Table I: H; H; OCOCH3; COCH3]	3000

Same assay, conditions: Table I; read-out: Ki, concentration of the inhibitor giving 50% of the control enzyme activity

SMILES	Ki [nM]
CC[C@H]1C(=O)N(C(C)=O)[C@@H]1Oc1ccc(C(=O)O)cc1 (relative stereo)	3400
CCOC(=O)N1C(=O)[C@H](CC)[C@H]1Oc1ccc(C(=O)O)cc1 (relative stereo)	2100
CC[C@H]1C(=O)N(C(C)=O)[C@@H]1OC(=O)c1ccccc1 (relative stereo) [Table I: H; C2 H5 (trans); OCOPh; COCH3]	190
CC[C@H]1C(=O)N(C(C)=O)[C@H]1OC(=O)c1ccccc1 (relative stereo) [Table I: H; C2 H5 (cis); OCOPh; COCH3]	210
CCC1C(=O)N(C(=O)c2ccccc2)C1C(C)=O (stereo not drawn) [Table I: H; C2 H5 (trans); COCH3; COPh]	340
CC[C@H]1C(=O)N(C(=O)NC)[C@@H]1Oc1ccc(C(=O)O)cc1 (relative stereo)	16500

Same assay, conditions: Table IV, (per mole per second)

SMILES	kobs/I, second order rate constant of inactivation of the enzyme [M⁻¹ s⁻¹]
CCCC1(CCC)C(=O)N(C(=O)NC(C)c2ccccc2)C1Oc1ccc(C(=O)O)cc1 (single isomer, unassigned) [Table IV: C3 H7; C3 H7; O-(4-COOHPh); drawing 47 (lower Rf isomer)]	1446

Same assay, conditions: pH 7.5, Table I; read-out: kobs/I, second order rate constant of inactivation of the enzyme

SMILES	kinact/KI [M⁻¹ s⁻¹]
CCOC(=O)N1C(=O)[C@H](CC)[C@H]1OCC(=O)O (relative stereo)	512
CC[C@H]1C(=O)N(S(=O)(=O)c2ccc(C)cc2)[C@H]1C(=O)OCC(=O)O (relative stereo)	1550
CCOC(=O)N1C(=O)[C@H](CC)[C@H]1OCC(=O)NCC(=O)O (relative stereo)	1000

Same assay, conditions: pH 7.5, Table II, (per mole per second); read-out: kobs/I, second order rate constant of inactivation of the enzyme

SMILES	kinact/KI [M⁻¹ s⁻¹]
CCC1(CC)C(=O)N(C(=O)NCCCCOc2ccccc2)C1Oc1ccc(C(=O)O)cc1 (stereo not drawn)	3450
CCC1(CC)C(=O)N(C(=O)NCCCCc2ccccc2)C1Oc1ccc(C(=O)O)cc1 (stereo not drawn)	10900
CCC1(CC)C(=O)N(C(=O)NCc2ccccc2)C1Oc1ccc(CC(=O)O)cc1 (stereo not drawn)	3180
COC1C(=O)N(C(=O)NCc2ccc3ccccc3c2)C1c1ccc(C(=O)O)cc1 (stereo not drawn) [Table II: H; OMe; Ph-4-COOH; CH2-2-Naph]	1340
O=C(O)c1ccc(OC2N(C(=O)NCc3ccccc3)C(=O)C23CCCC3)cc1 (stereo not drawn)	1900
CCC1C(=O)N(C(=O)NCc2ccccc2)C1Oc1ccc(C(=O)O)cc1 (stereo not drawn) [Table II: C2 H5; H; O-(4-COOHPh); CH2 Ph]	4000
CCC(NC(=O)N1C(=O)C(C)(CC)C1Oc1ccc(C(=O)O)cc1)c1ccc2occc2c1 (stereo not drawn)	750000
CCC1(CC)C(=O)N(C(=O)NCc2ccc(C(=O)NS(=O)(=O)c3ccc(Cl)cc3)cc2)C1Oc1ccc(C(=O)O)cc1 (stereo not drawn)	1730
C=CCC1(CC)C(=O)N(C(=O)NCc2ccccc2)C1Oc1ccc(C(=O)O)cc1 (stereo not drawn)	1970
CCC1(CC)C(=O)N(C(=O)NCc2ccccc2)C1Oc1ccc([C@H](NC(C)=O)C(=O)O)cc1 (stereo partly drawn) [Table II: C2 H5; C2 H5; drawing 39; CH2 Ph]	2420
CCC1(CC)C(=O)N(C(=O)NCc2cccs2)C1Oc1ccc(C(=O)O)cc1 (stereo not drawn)	4920
CCC1(CC)C(=O)N(C(=O)NC(C)c2cccc3ccccc23)C1Oc1ccc(C(=O)O)cc1 (stereo not drawn)	14100
CCC1(CC)C(=O)N(C(=O)NCc2ccc(C)cc2)C1Oc1ccc(C(=O)O)cc1 (stereo not drawn)	3960
CCC1(CC)C(=O)N(C(=O)NCc2ccccc2)C1Oc1ccc2cc(C(=O)O)ccc2c1 (stereo not drawn)	5560
CCC1(CC)C(=O)N(C(=O)NCc2ccc(-c3ccccc3)cc2)C1Oc1ccc(C(=O)O)cc1 (stereo not drawn)	37000
CCC1(CC)C(=O)N(C(=O)NCc2ccccc2)C1Oc1cccc(C(=O)O)c1 (stereo not drawn)	1760
CCC1(C)C(=O)N(C(=O)NCc2ccc(OC)c(OC)c2)C1Oc1ccc(C(=O)O)cc1 (stereo not drawn)	11300

Same assay, conditions: pH 7.5, Table III, (per mole per second); read-out: kobs/I, second order rate constant of inactivation of the enzyme

SMILES	kinact/KI [M⁻¹ s⁻¹]
CCC1(CC)C(=O)N(C(=O)NCc2ccc(C(C)(C)C)cc2)C1Oc1ccc(C(=O)O)cc1 (stereo not drawn) [Table III: O-(4-COOHPh); CH2 Ph(4-tBu)]	21800
CCC1(CC)C(=O)N(C(=O)NCc2ccc(C)c(C)c2)C1Oc1ccc(C(O)C(=O)O)cc1 (stereo not drawn)	17600
CCC1(CC)C(=O)N(C(=O)NCc2ccccc2)C1Sc1nc[nH]n1 (stereo not drawn)	116
CCC1(CC)C(=O)N(C(=O)NCc2ccccc2)C1Sc1nnnn1C (stereo not drawn)	3660
CCC1(CC)C(=O)N(C(=O)NCc2ccc3cc(C(=O)O)ccc3c2)C1Oc1ccc(C(N)=O)cc1 (stereo not drawn)	40600
CCC1(CC)C(=O)N(C(=O)NCc2ccccc2O)C1Oc1ccc(C(=O)O)cc1 (stereo not drawn) [Table III: O-(4-COOHPh); CH2 Ph(2-OH)]	1460
CCC1(CC)C(=O)N(C(=O)NCc2ccc(C(C)C)cc2)C1Oc1ccc(C(=O)O)cc1 (stereo not drawn) [Table III: O-(4-COOHPh); CH2 Ph(4-i-Pr)]	18800
CCC1(CC)C(=O)N(C(=O)NCc2ccccc2)C1Oc1ccccc1CCCN(C)C (stereo not drawn) [Table III: O-(2-(CH2)3 NMe2Ph); CH2 Ph]	629
CCC1(CC)C(=O)N(C(=O)NCc2ccc(C)cc2)C1Oc1ccc(C(=O)O)c(O)c1 (stereo not drawn)	9250
CCC1(CC)C(=O)N(C(=O)NCc2ccc(OC)c(C)c2)C1Oc1ccc(C(=O)O)cc1 (stereo not drawn)	13100
CCC(NC(=O)N1C(=O)C(CC)(CC)C1OCC(=O)O)c1ccccc1 (stereo not drawn) [Table III: OCH2COOH; CH(Et)Ph]	5710
CCC1(CC)C(=O)N(C(=O)NCc2ccc(-c3cccc(C(=O)O)c3)cc2)C1Oc1ccc(C(=O)O)cc1 (stereo not drawn)	14700

Same assay, conditions: pH 7.5, Table IV, (per mole per second); read-out: kobs/I, second order rate constant of inactivation of the enzyme

SMILES	kinact/KI [M⁻¹ s⁻¹]
CCOC(=O)c1ccc(COC(=O)N2C(=O)C(CC)(CC)C2Oc2ccc(C(=O)O)cc2)cc1 (stereo not drawn)	14300

Same assay, conditions: pH 7.5, Table V, (per mole per second); read-out: kobs/I, second order rate constant of inactivation of the enzyme

SMILES	kinact/KI [M⁻¹ s⁻¹]
CCC1(CC)C(=O)N(C(=O)N[C@H](Cc2ccccc2)c2ccccc2)[C@H]1Oc1ccc(C(=O)O)cc1 [Table V: 4-COOH; PhCH2; H]	25000

Same assay, conditions: pH 7.5, Table VI, (per mole per second); read-out: kobs/I, second order rate constant of inactivation of the enzyme

SMILES	kinact/KI [M⁻¹ s⁻¹]
CC[C@@H](NC(=O)N1C(=O)C(CC)(CC)[C@@H]1Oc1cc(C)c(C(=O)O)c(C)c1)c1ccccc1 [Table VI: 3,5-Me2-4-COOH; Et; H]	25000
CCC1(CC)C(=O)N(C(=O)N[C@H](C)c2ccc(C)cc2)[C@H]1Oc1ccc(C(=O)O)cc1 [Table VI: 4-COOH; Me; 4-Me]	10700
CCC1(CC)C(=O)N(C(=O)N[C@@H](C)c2ccc(-c3ccccc3)cc2)[C@H]1Oc1ccc(C(=O)O)cc1 [Table VI: 4-COOH; Me(s); 4-Ph]	49200
CC[C@@H](NC(=O)N1C(=O)C(CC)(CC)[C@@H]1Oc1ccc(C(=O)O)cc1)c1ccccc1 [Table VI: 4-COOH; Et; H]	76200
CCC[C@@H](NC(=O)N1C(=O)C(CC)(CC)[C@@H]1Oc1ccc(C(=O)O)c(C)c1)c1ccc(C)cc1 [Table VI: 3-Me,4-COOH; nPr; 4-Me, (4S)-3,3-diethyl-1-[(R)-α-n-propyl-(4-methyl)benzylaminocarbonyl]-4-[(4-carboxy-3-methyl)phenoxy]azetidin-2-one]	186000
CCC1(CC)C(=O)N(C(=O)N[C@H](c2ccccc2)c2ccc(-c3ccccc3)cc2)[C@H]1Oc1ccc(C(=O)O)cc1 [Table VI: 4-COOH; Ph; 4-Ph]	67800
CCC1(CC)C(=O)N(C(=O)N[C@H](C)c2ccccc2)[C@H]1Oc1ccc(C(=O)CCC(=O)O)cc1 [Table VI: 4-CO(CH2)2COOH; Me; H]	37100
CCC1(CC)C(=O)N(C(=O)N[C@H](COC)c2ccccc2)[C@H]1Oc1ccc(C(=O)O)cc1 [Table VI: 4-COOH; CH2 OMe(s); H]	6980
CC[C@@H](NC(=O)N1C(=O)C(CC)(CC)[C@@H]1Oc1cccc(CC(=O)O)c1)c1ccccc1 [Table VI: 3-CH2 COOH; Et; H]	81000
CCC1(CC)C(=O)N(C(=O)N[C@H](C)c2ccccc2)[C@H]1Oc1cccc(CC(=O)O)c1 [Table VI: 3-CH2 COOH; Me; H]	5880
CCC1(CC)C(=O)N(C(=O)N[C@@H](COC)c2ccccc2)[C@H]1Oc1ccc(CC(=O)O)cc1 [Table VI: 4-CH2 COOH; CH2 OMe(R); H]	11000
CCC[C@@H](NC(=O)N1C(=O)C(CC)(CC)[C@@H]1Oc1ccc(CC(=O)O)cc1)c1ccc(C)cc1 [Table VI: 4-CH2 COOH; nPr; 4-Me, (4S)-3,3-diethyl-1-[(R)-α-n-propyl-(4-methyl)-benzylaminocarbonyl]-4-[(4-carboxymethyl)-phenoxy]azetidin-2-one]	557000
CC[C@@H](NC(=O)N1C(=O)C(CC)(CC)[C@@H]1Oc1ccc(C(=O)O)c(O)c1)c1ccccc1 [Table VI: 3-OH-4-COOH; Et; H]	125000

Same assay, conditions: pH 7.5, read-out: kobs/I, second order rate constant of inactivation of the enzyme

SMILES	kinact/KI [M⁻¹ s⁻¹]
CC[C@H]1C(=O)N(C(C)=O)[C@@H]1Oc1ccc(C(=O)O)cc1 (relative stereo)	8730
CCOC(=O)N1C(=O)[C@H](CC)[C@H]1Oc1ccc(C(=O)O)cc1 (relative stereo)	8680
CC[C@H]1C(=O)N(C(C)=O)[C@@H]1OC(=O)c1ccccc1 (relative stereo) [Table I: H; C2 H5 (trans); OCOPh; COCH3]	81000
CCOC(=O)[C@H]1[C@@H](CC)C(=O)N1S(=O)(=O)c1ccc([N+](=O)[O-])cc1 (relative stereo) [4-Carboethoxy-3-ethyl-1-(p-nitrobenzenesulfonyl)-azetidin-2-one]	3920
CC[C@H]1C(=O)N(C(C)=O)[C@H]1OC(=O)c1ccccc1 (relative stereo) [Table I: H; C2 H5 (cis); OCOPh; COCH3]	28500
CCC1C(=O)N(C(=O)c2ccccc2)C1C(C)=O (stereo not drawn) [Table I: H; C2 H5 (trans); COCH3; COPh]	76600
CCOC(=O)[C@@H]1[C@@H](CC)C(=O)N1S(=O)(=O)c1ccc([N+](=O)[O-])cc1 (relative stereo) [4-Carboethoxy-3-ethyl-1-(p-nitrobenzenesulfonyl)-azetidin-2-one]	39300
